We go through 41 compounds from patent publication US20260097022A1, “COMPOUNDS AND USES THEREOF” (Integrated Biosciences, Inc., priority 2023, published 2026).

The test system of the first assay is etoposide-treated IMR-90 cells. Kind of assay: Etoposide-induced senescence model, resazurin cell viability (screen and dose-response). Conditions: 1 μM, 3 days. Format: cell-based, human. As to the method: Cell culture. Human lung fibroblast (IMR-90) cells were obtained from ATCC (CCL-186) and passaged less than 10 times (less than 30 population doublings) for all experiments described in this example, with the exception of high-passage cells used in the model of replicative senescence (see the section on Replicative senescence below). Cells were cultured in growth media comprising Eagle's Minimum Essential Medium (EMEM: ATCC 30-2003) supplemented with 10% fetal bovine serum (FBS: Thermo Fisher 16140071) and 1% penicillin-streptomycin (Thermo Fisher 15070063). Cells were incubated in a humidity-controlled incubator at 37° C., with 5% CO2. Cells were detached using trypsin-EDTA (0.05%; Gibco 25300120).
Etoposide-induced senescence. IMR-90 cells were cultured as described above. At between 30 to 50% confluence, the media was replaced with complete growth media containing vehicle (0.5% dimethyl sulfoxide: DMSO, MilliporeSigma D5879) or complete growth media containing 50 μM etoposide (prepared as a 1:200 dilution of a 10 mM stock solution in DMSO; etoposide, MilliporeSigma E1383). Cells were treated for 2 days, after which the media was replaced with fresh growth media and cells were allowed to recover for 4 days. Cells were then plated as described below.
Chemical screening. For all screening experiments. 99 μL of cells were plated into each well of a 96-well clear flat-bottom, black polystyrene tissue-culture-treated plate (Corning 3904) at a density of ˜10+ cells/well. Plates were incubated overnight for adhesion. The day after plating. 1 μL of each compound, prepared as either a 1 mM stock solution in DMSO (10 μM final concentration screen) or 0.1 mM stock solution in DMSO (1 μM final concentration screen), was added to each well using an Agilent Bravo liquid handler. A built-in slow mixing step involving aspirating and dispensing was used to enhance distribution of the added compounds in solution. Cells were incubated for 3 days, after which resazurin (MilliporeSigma R^7017) was added to each well to a final concentration of 0.15 mM. After an additional 1 day of incubation, the fluorescence excitation/emission at 550/590 nm was read using a SpectraMaxR M3 plate reader and manufacturer software (SoftMax Pro R 6). Experiments were performed in biological duplicate.
Three-fold serial dilutions of compound were prepared in DMSO, then added to cell plates (final concentration of DMSO. 1%). Cell viability was then assayed as detailed above, and resazurin fluorescence values were linearly interpolated with respect to values from empty and positive control (non-treatment) wells. Experiments were performed in biological duplicate each on two independent occasions. When possible, chemical stocks from commercial suppliers were used: econazole nitrate (Cayman Chemical 20223), artenimol (Cayman Chemical 19846), and ABT-263 (Cayman Chemical 11500) were from Cayman Chemical, and dehydrodeguelin was aliquoted from the screening library.
Calculation of cellular viability values in dose-response curves. […] For each sample, the fluorescence intensity value was normalized by the mean of two untreated control values. Cellular viability values are therefore indicated as fractions of the cellular viability of untreated controls. Vehicle (1% DMSO) control values are included in each dose-response curve. Experiments were performed in biological duplicate each on two independent occasions.
Calculation of baseline cellular viability values. […] Additionally, baseline cellular viability values were calculated for untreated cells at the start of the experiment. Resazurin was added to a final concentration of 0.15 mM on the day of seeding (corresponding to day 0 in FIG. 7).
Consider `Cc1c(-c2ccc(N3CCc4cccc(C(=O)Nc5nc6ccccc6s5)c4C3)nc2C(=O)O)cnn1CC12CC3CC(CC(C3)C1)C2` [A-1331852, reference compound], for which the “senolytic activity in screen” value is “inactive”.

Still in this assay, the particulars now being: 10 μM, 3 days; active: control viability >0.5, Snc/control ratio <0.7.
Regarding `CN(C)CC#Cc1ccc(OCCCc2sc(N3CCc4cccc(C(=O)Nc5nc6ccccc6s5)c4C3)nc2C(=O)O)c(F)c1` [A-1155463, reference compound], the “senolytic activity in screen” value is given as “active”.

In the case of `Cc1c(-c2ccc(N3CCc4cccc(C(=O)Nc5nc6ccccc6s5)c4C3)nc2C(=O)O)cnn1CC12CC3CC(CC(C3)C1)C2` [A-1331852, reference compound], the “senolytic activity in screen” value is “active”.

The same assay, now with this note: etoposide-induced senescence model; ratio of IC50 values between etoposide- and DMSO-treated IMR-90 fibroblasts.
For `CCOc1ccc(NC(=O)CSc2nc3ccc(NC(=O)c4cccc(C)c4)cc3s2)cc1` [compound 2], the “Therapeutic Index (TI)” value was “+++ (compounds with a TI of >5 were labeled as +++)”.

`COc1ccc(NC(=O)CSc2nc3ccc(NC(=O)c4ccccc4F)cc3s2)cc1` [compound 3]: the “Therapeutic Index (TI)” value was “+++ (compounds with a TI of >5 were labeled as +++)”.

`O=C(CSc1nc2ccc(NC(=O)c3ccc(Cl)cc3Cl)cc2s1)Nc1ccccc1` [compound 4]: the “Therapeutic Index (TI)” value is “+++ (compounds with a TI of >5 were labeled as +++)”.

As for `COc1ccc(C(=O)Nc2ccc3nc(SCC(=O)Nc4ccccc4)sc3c2)cc1OC` [compound 5], the “Therapeutic Index (TI)” value was “+++ (compounds with a TI of >5 were labeled as +++)”.

For the compound `Cc1cccc(C(=O)Nc2ccc3nc(SCC(=O)Nc4ccccc4C)sc3c2)c1` [compound 7], the “Therapeutic Index (TI)” value was “+++ (compounds with a TI of >5 were labeled as +++)”.

Consider `O=C(CSc1nc2ccc(NC(=O)c3ccccc3)cc2s1)NC[C@H]1CCCO1` [compound 8], for which the “Therapeutic Index (TI)” value is on record as “+++ (compounds with a TI of >5 were labeled as +++)”.

With `CCCCOc1ccc(NC(=O)CSc2nc3ccc(NC(=O)c4ccc(C(C)(C)C)cc4)cc3s2)cc1` [compound 9], the “Therapeutic Index (TI)” value is “+++ (compounds with a TI of >5 were labeled as +++)”.

On to `Cc1ccc(NC(=O)C(C)Sc2nc3ccc(NC(=O)c4ccccc4F)cc3s2)cc1` (stereo not drawn) [compound 10], for which the “Therapeutic Index (TI)” value is listed as “+++ (compounds with a TI of >5 were labeled as +++)”.

Consider `COc1ccc(C(=O)Nc2ccc3nc(SCC(=O)Nc4ccc(C)cc4C)sc3c2)cc1` [compound 11], for which the “Therapeutic Index (TI)” value is listed as “+++ (compounds with a TI of >5 were labeled as +++)”.

Regarding `COc1ccc(NC(=O)CSc2nc3ccc(NC(=O)c4cccc(OC)c4)cc3s2)cc1` [compound 12], the “Therapeutic Index (TI)” value is given as “+++ (compounds with a TI of >5 were labeled as +++)”.

For `COc1cccc(C(=O)Nc2ccc3nc(SCC(=O)Nc4ccc(C)cc4)sc3c2)c1` [compound 13], the “Therapeutic Index (TI)” value was “+++ (compounds with a TI of >5 were labeled as +++)”.

As for `CC(C)c1ccc(NC(=O)CSc2nc3ccc(NC(=O)c4ccccc4)cc3s2)cc1` [compound 14], the “Therapeutic Index (TI)” value was “+++ (compounds with a TI of >5 were labeled as +++)”.

For `CCC(Sc1nc2ccc(NC(=O)c3ccccc3)cc2s1)C(=O)Nc1ccc(C(C)=O)cc1` (stereo not drawn) [compound 15], the “Therapeutic Index (TI)” value is “+++ (compounds with a TI of >5 were labeled as +++)”.

For `COc1ccc(OC)c(NC(=O)CSc2nc3ccc(NC(=O)c4ccccc4C)cc3s2)c1` [compound 16], the “Therapeutic Index (TI)” value is reported as “+++ (compounds with a TI of >5 were labeled as +++)”.

Regarding `CC(=O)c1ccc(NC(=O)CSc2nc3ccc(NC(=O)c4ccccc4Cl)cc3s2)cc1` [compound 17], the “Therapeutic Index (TI)” value is recorded as “+++ (compounds with a TI of >5 were labeled as +++)”.

Consider `Cc1ccc(C(=O)Nc2ccc3nc(SCC(=O)N4CCc5ccccc54)sc3c2)cc1` [compound 18], for which the “Therapeutic Index (TI)” value is reported as “+++ (compounds with a TI of >5 were labeled as +++)”.

With `Cc1ccccc1C(=O)Nc1ccc2nc(SCC(=O)Nc3ccc(F)cc3)sc2c1` [compound 20], the “Therapeutic Index (TI)” value is reported as “+++ (compounds with a TI of >5 were labeled as +++)”.

As to `COc1ccccc1C(=O)Nc1ccc2nc(SCC(=O)Nc3ccc(C(C)=O)cc3)sc2c1` [compound 21], the “Therapeutic Index (TI)” value is on record as “+++ (compounds with a TI of >5 were labeled as +++)”.

As for `CCOc1ccc(NC(=O)CSc2nc3ccc(NC(=O)c4ccccc4Cl)cc3s2)cc1` [compound 22], the “Therapeutic Index (TI)” value is on record as “+++ (compounds with a TI of >5 were labeled as +++)”.

For `O=C(CSc1nc2ccc(NC(=O)c3ccccc3Cl)cc2s1)Nc1ccc(F)cc1` [compound 23], the “Therapeutic Index (TI)” value is given as “+++ (compounds with a TI of >5 were labeled as +++)”.

`Cc1ccc(C(=O)Nc2ccc3nc(SCC(=O)Nc4ccc(C(C)C)cc4)sc3c2)cc1` [compound 24]: the “Therapeutic Index (TI)” value is on record as “+++ (compounds with a TI of >5 were labeled as +++)”.

Regarding `CCOc1ccc(NC(=O)CSc2nc3ccc(N4C(=O)c5ccccc5C4=O)cc3s2)cc1` [compound 25], the “Therapeutic Index (TI)” value is listed as “+++ (compounds with a TI of >5 were labeled as +++)”.

With `CCOc1ccccc1NC(=O)CSc1nc2ccc(NC(=O)c3ccccc3Cl)cc2s1` [compound 26], the “Therapeutic Index (TI)” value was “+++ (compounds with a TI of >5 were labeled as +++)”.

Consider `Cc1cccc(NC(=O)CSc2nc3ccc(NC(=O)c4ccccc4F)cc3s2)c1C` [compound 27], for which the “Therapeutic Index (TI)” value is “+++ (compounds with a TI of >5 were labeled as +++)”.

Consider `COc1ccccc1NC(=O)CSc1nc2ccc(NC(=O)c3ccccc3OC)cc2s1` [compound 28], for which the “Therapeutic Index (TI)” value is on record as “+++ (compounds with a TI of >5 were labeled as +++)”.

In the case of `Cc1ccccc1C(=O)Nc1ccc2nc(SCC(=O)Nc3ccccc3F)sc2c1` [compound 29], the “Therapeutic Index (TI)” value is recorded as “++ (compounds with a TI of 1 to 5 were labelled as ++)”.

Take `COc1ccccc1C(=O)Nc1ccc2nc(SCC(=O)N3CCc4ccccc43)sc2c1` [compound 30]: the “Therapeutic Index (TI)” value is given as “++ (compounds with a TI of 1 to 5 were labelled as ++)”.

In the case of `O=C(Nc1ccc2nc(SCC(=O)N3CCc4ccccc43)sc2c1)c1cccc(F)c1` [compound 31], the “Therapeutic Index (TI)” value is given as “++ (compounds with a TI of 1 to 5 were labelled as ++)”.

As for `CCc1cccc(CC)c1NC(=O)CSc1nc2ccc(NC(=O)c3cccc(C)c3)cc2s1` [compound 32], the “Therapeutic Index (TI)” value is listed as “++ (compounds with a TI of 1 to 5 were labelled as ++)”.

`COc1ccc(C(=O)Nc2ccc3nc(SCC(=O)N4CCc5ccccc54)sc3c2)cc1` [compound 33]: the “Therapeutic Index (TI)” value is on record as “++ (compounds with a TI of 1 to 5 were labelled as ++)”.

On to `CCCCOc1ccc(NC(=O)CSc2nc3ccc(NC(=O)c4ccc(C)cc4)cc3s2)cc1` [compound 34], for which the “Therapeutic Index (TI)” value was “++ (compounds with a TI of 1 to 5 were labelled as ++)”.

As to `CCOc1ccc(C(=O)Nc2ccc3nc(SCC(=O)Nc4ccccc4C)sc3c2)cc1` [compound 35], the “Therapeutic Index (TI)” value is reported as “++ (compounds with a TI of 1 to 5 were labelled as ++)”.

As to `Cc1ccc(C(=O)Nc2ccc3nc(SCC(=O)Nc4ccccc4)sc3c2)cc1` [compound 36], the “Therapeutic Index (TI)” value is on record as “++ (compounds with a TI of 1 to 5 were labelled as ++)”.

On to `Cc1ccc(NC(=O)CSc2nc3ccc(NC(=O)c4ccccc4)cc3s2)cc1Cl` [compound 37], for which the “Therapeutic Index (TI)” value is reported as “++ (compounds with a TI of 1 to 5 were labelled as ++)”.

Consider `CCOc1ccc(NC(=O)C(C)Sc2nc3ccc(NC(=O)c4ccccc4)cc3s2)cc1` (stereo not drawn) [compound 38], for which the “Therapeutic Index (TI)” value is reported as “++ (compounds with a TI of 1 to 5 were labelled as ++)”.

For the compound `COc1ccccc1NC(=O)CSc1nc2ccc(NC(=O)c3ccc(C)cc3)cc2s1` [compound 39], the “Therapeutic Index (TI)” value is on record as “++ (compounds with a TI of 1 to 5 were labelled as ++)”.

Consider `CCOc1ccc(NC(=O)CSc2nc3ccc(NC(=O)c4ccccc4OC)cc3s2)cc1` [compound 40], for which the “Therapeutic Index (TI)” value is listed as “++ (compounds with a TI of 1 to 5 were labelled as ++)”.

For the compound `CCOc1ccc(NC(=O)C(C)Sc2nc3ccc(NC(=O)c4ccc(OC)cc4)cc3s2)cc1` (stereo not drawn) [compound 41], the “Therapeutic Index (TI)” value is given as “++ (compounds with a TI of 1 to 5 were labelled as ++)”.

With `O=C(CSc1nc2ccc(NC(=O)c3ccccc3Cl)cc2s1)Nc1ccccc1F` [compound 42], the “Therapeutic Index (TI)” value is reported as “++ (compounds with a TI of 1 to 5 were labelled as ++)”.
